Where two headings read alike, the source gives them in different places.
What was measured:
NIK/MAP3K14 = NIK/MAP3K14 (Homo sapiens (Human), UniProt Q99558); assay: Inhibition of auto-phosphorylation of recombinant human NF-kappaB-inducing kinase (NIK/MAP3K14) activity (AlphaScreen); format: biochemical; conditions: averaged values over all measurements on all batches, 25 microM ATP
Protocol: Inhibition of Auto-Phosphorylation of Recombinant Human NF-kappaB-Inducing Kinase ([…]) Activity (AlphaScreen®)
NIK/MAP3K14 auto-phosphorylation activity was measured using the AlphaScreen® (αscreen) format (Perkin Elmer). All compounds tested were dissolved in dimethyl sulfoxide (DMSO) and further dilutions were made in assay buffer. Final DMSO concentration was […] in assays. Assay buffer was 50 mM Tris pH 7.5 containing 1 mM EGTA (ethylene glycol tetraacetic acid), 1 mM DTT (dithiothreitol), 0.1 mM Na3VO4, 5 mM MgCl2, 0.01% Tween® 20. Assays were carried out in 384 well Alphaplates (Perkin Elmer). Incubations consisted of compound, 25 microM Adenosine-5′-triphosphate (ATP), and 0.2 nM NIK/MAP3K14. Incubations were initiated by addition of GST-tagged NIK/MAP3K14 enzyme, carried out for 1 h at 25° C. and terminated by addition of stop buffer containing anti-phospho-[…] Ser176/180 antibody. Protein A Acceptor and Glutathione-Donor beads were added before reading using an EnVision® Multilabel Plate Reader (Perkin Elmer). Signal obtained in the wells containing blank samples was subtracted from all other wells and IC50's were determined by fitting a sigmoidal curve to % inhibition of control versus Log10 compound concentration.

[1] = system: P-IKKα levels in L363 cells; assay: Effect of compounds on P-IKKα levels in L363 (NIK translocated multiple myeloma) cells; format: cell-based, human; conditions: 2 hr treatment, averaged values, read-out: Inhibition of pIKKα_L-363 (IC50 (nM))
Protocol: Effect of Compounds on P-IKKα Levels in L363 (NIK Translocated Multiple Myeloma) Cells
All compounds tested were dissolved in DMSO and further dilutions were made in culture medium. Final DMSO concentration was 1% (v/v) in cell assays. The human L363 cells (ATCC) were cultured in RPMI 1640 medium supplemented with GlutaMax and 10% fetal calf serum (PAA). Cells were routinely maintained at densities of 0.2×10^6 cells per ml—1×10^6 cells per ml at 37° C. in a humidified 5% CO2 atmosphere. Cells were passaged twice a week splitting back to obtain the low density. Cells were seeded in 96 well plates (Nunc 167008) at 2×10^6 per ml media in a volume of 75 μl per well plus 25 μl 1 μg/ml recombinant human B-cell activating factor (BAFF/BLyS/TNFSF13B). Seeded cells were incubated at 37° C. in a humidified 5% CO2 atmosphere for 24 hr. Drugs and/or solvents were added (20 μl) to a final volume of 120 μl. Following 2 hr treatment plates were removed from the incubator and cell lysis was achieved by the addition of 30 μl 5× lysis buffer followed by shaking on a plate shaker at 4° C. for 10 min. At the end of this incubation lysed cells were centrifuged at 800×g for 20 min at 4° C. and the lysate was assessed for P-IKKα levels by sandwich immuno-assay carried out in anti-rabbit antibody coated Mesoscale plates. Within an experiment, the results for each treatment were the mean of 2 replicate wells. For initial screening purposes, compounds were tested using an 8 point dilution curve (serial 1:3 dilutions). For each experiment, controls (containing MG132 and BAFF but no test drug) and a blank incubation (containing MG132 and BAFF and 10 μM ADS125117, a test concentration known to give full inhibition) were run in parallel. The blank incubation value was subtracted from all control and sample values. To determine the IC50 a sigmoidal curve was fitted to the plot of % inhibition of control P-IKKα levels versus Log10 compound concentration.

KMS12-BM cells = assay: Antiproliferative activity on KMS12-BM (NIK WT) multiple myeloma cells (CellTiter-Glo); format: cell-based, human; conditions: 96 hr treatment, averaged values, read-out: KMS-12 Proliferation inhibition (IC50 (nM))
Protocol: (§1) Determination of Antiproliferative Activity on JJN-3 (NIK Translocated) and KMS12-BM (NIK WT) Multiple Myeloma Cells
(§2) All compounds tested were dissolved in DMSO and further dilutions were made in culture medium. Final DMSO concentration was 0.3% (v/v) in cell proliferation assays. Viability was assessed using CellTiter-Glo cell viability assay kit (Promega). The human JJN-3 and KMS12-BM cells (DSMZ) were cultured in RPMI 1640 medium supplemented with 2 mM L-glutamine, and 10% fetal calf serum (PAA). Cells were routinely kept as suspension cells at 37° C. in a humidified 5% CO2 atmosphere. Cells were passaged at a seeding density of 0.2×10^6/ml twice a week. Cells were seeded in black tissue culture treated 96-well plates (Perkin Elmer). Densities used for plating ranged from 15000 (JJN3) to 20000 (KMS12BM) cells per well in a total volume of […]. Drugs and/or solvents were added (15 μl) to a final volume of 150 μl. Following 96 hr of treatment, plates were removed from the incubator and allowed to equilibrate to room temperature for approx 10 min. 75 μl CellTiter-Glo reagent was added to each well that was then covered (Perkin Elmer Topseal) and shaken on plate shaker for 10 min. Luminescence was measured on a HTS Topcount (Perkin Elmer). Within an experiment, the results for each treatment were the mean of 2 replicate wells. For initial screening purposes, compounds were tested using a 9 point dilution curve (serial 1:3 dilutions). For each experiment, controls (containing no drug) and a blank incubation (containing cells read at the time of compound addition) were run in parallel. The blank value was subtracted from all control and sample values. For each sample, the mean value for cell growth (in relative light units) was expressed as a percentage of the mean value for cell growth of the control.

JJN-3 cells = assay: Antiproliferative activity on JJN-3 (NIK translocated) multiple myeloma cells (CellTiter-Glo); format: cell-based, human; conditions: JJN-3 (NIK translocated) cells, 96 hr treatment, averaged values, read-out: JJN-3 Proliferation inhibition (IC50 (nM))
Protocol: as §1, §2

Sequence of NIK/MAP3K14 (Q99558 whole entry): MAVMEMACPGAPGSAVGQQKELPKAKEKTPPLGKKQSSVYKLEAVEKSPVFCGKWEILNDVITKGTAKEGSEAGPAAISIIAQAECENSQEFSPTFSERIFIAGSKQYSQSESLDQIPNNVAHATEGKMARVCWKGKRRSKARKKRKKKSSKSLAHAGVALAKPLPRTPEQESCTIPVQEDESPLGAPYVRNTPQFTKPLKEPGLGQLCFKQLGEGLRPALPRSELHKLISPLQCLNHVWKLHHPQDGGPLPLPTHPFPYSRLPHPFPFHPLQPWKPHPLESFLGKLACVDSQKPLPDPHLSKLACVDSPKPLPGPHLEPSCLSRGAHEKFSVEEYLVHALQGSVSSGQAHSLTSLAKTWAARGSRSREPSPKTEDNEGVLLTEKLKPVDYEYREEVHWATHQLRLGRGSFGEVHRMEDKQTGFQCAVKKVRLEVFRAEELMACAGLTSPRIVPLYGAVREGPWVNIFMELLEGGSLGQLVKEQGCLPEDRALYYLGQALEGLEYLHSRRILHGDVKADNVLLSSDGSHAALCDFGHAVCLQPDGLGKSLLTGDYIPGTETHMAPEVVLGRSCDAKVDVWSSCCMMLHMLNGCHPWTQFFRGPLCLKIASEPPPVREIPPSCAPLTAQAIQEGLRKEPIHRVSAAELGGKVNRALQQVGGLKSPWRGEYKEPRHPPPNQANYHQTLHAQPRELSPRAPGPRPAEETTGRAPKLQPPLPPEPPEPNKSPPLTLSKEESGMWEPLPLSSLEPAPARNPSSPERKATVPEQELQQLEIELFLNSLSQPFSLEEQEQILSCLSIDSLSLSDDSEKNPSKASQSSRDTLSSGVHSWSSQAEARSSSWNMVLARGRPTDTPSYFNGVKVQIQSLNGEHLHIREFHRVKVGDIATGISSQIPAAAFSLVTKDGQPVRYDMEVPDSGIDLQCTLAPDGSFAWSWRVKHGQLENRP

| SMILES | IC50 (NIK/MAP3K14) [nM] | IC50 [1] [nM] | IC50 (KMS12-BM cells; Homo sapiens, KMS-12-BM, 96 h) [nM] | IC50 (JJN-3 cells; Homo sapiens, JJN-3, 96 h) [nM] | IC50 ([1]; Homo sapiens, L-363, 2 h) [nM] | IC50 (KMS12-BM cells) [nM] | IC50 (JJN-3 cells) [nM] |
| --- | --- | --- | --- | --- | --- | --- | --- |
| CC1CC(C)n2ncc(Nc3nccc(-c4cc(C#N)c5c(c4)C(C)(CO)CN5)n3)c2O1 (racemic) [Compound 20b] | 6.2 | 2 | – | – | – | – | – |
| CC1(C)CNc2c(C#N)cc(-c3ccnc(Nc4cc(Cl)cc5[nH]ccc45)n3)cc21 [Compound 7c] | – | – | > 10000 | 537 | 72 | – | – |
| CC1(C)Cn2nc(Nc3nccc(-c4cc(C#N)c5c(c4)C(C)(CO)CN5)n3)cc2CO1 (centres unmarked) [Compound 10b] | 9.6 | – | 2400 | 1020 | – | – | – |
| COc1nc2c(ccn2CC(=O)N(C)C)cc1Nc1nccc(-c2cc(C#N)c3c(c2)[C@@](C)(CO)CN3)n1 [Compound 10c] | 4.3 | – | > 10000 | 63 | – | – | – |
| CN(C)C(=O)C1COc2c(cc(Cl)cc2Nc2nccc(-c3cc(C#N)c4c(c3)[C@@](C)(CO)CN4)n2)C1 (some centres unmarked) [Compound 11] | 9.1 | – | – | 36 | – | 1180 | – |
| COCCn1nc2c(c1Nc1nccc(-c3cc(C#N)c4c(c3)[C@@](C)(CO)CN4)n1)CCC2 [Compound 11b] | 39.8 | – | ~1820 | 1580 | – | – | – |
| CNC(=O)CCn1ccc2c(Nc3nccc(-c4cc(C#N)c5c(c4)C(C)(CO)CN5)n3)cc(Cl)cc21 (centres unmarked) [Compound 11c] | 4.3 | – | 427 | 16 | – | – | – |
| CN(C)C(=O)C1COc2c(cc(Cl)cc2Nc2nccc(-c3cc(C#N)c4c(c3)[C@@](C)(CO)CN4)n2)C1 (some centres unmarked) [Compound 12] | 14.1 | – | – | – | – | ~6610 | 22 |
| CN(C)C(=O)c1cc2cc(Nc3nccc(-c4cc(C#N)c5c(c4)C(C)(C)CN5)n3)ccc2[nH]1 [Compound 12c] | 10.5 | – | – | – | 14 | – | – |
| CN(C)CC(=O)N1CCc2c(Nc3nccc(-c4cc(C#N)c5c(c4)[C@@](C)(CO)CN5)n3)cc(Cl)cc21 [Compound 13] | 1.3 | – | ~3550 | 18 | – | – | – |
| COc1cc2[nH]ccc2cc1Nc1nccc(-c2cc(C#N)c3c(c2)C(C)(CO)CN3)n1 (centres unmarked) [Compound 13c] | 6.2 | – | – | – | 3 | – | – |
| CNC(=O)CN1CCc2c(Nc3nccc(-c4cc(C#N)c5c(c4)C(C)(CO)CN5)n3)cc(Cl)cc21 (centres unmarked) [Compound 14] | 3 | – | 251 | 54 | – | – | – |
| COCCn1ccc2cc(Nc3nccc(-c4cc(C#N)c5c(c4)[C@@](C)(CO)CN5)n3)c(OC)nc21 [Compound 14c] | 5.6 | – | > 10000 | 63 | – | – | – |
| Cc1c(Nc2nccc(-c3cc(C#N)c4c(c3)[C@@](C)(CO)CN4)n2)ccc2c1CCN2C(=O)CN(C)C [Compound 15] | 2.5 | – | 96 | 89 | – | – | – |
| Cc1c(Nc2nccc(-c3cc(C#N)c4c(c3)[C@@](C)(CO)CN4)n2)cc(Cl)c2c1CCN2C(=O)CN(C)C [Compound 16] | 1.6 | – | ~339 | 26 | – | – | – |
| CN(C)C1COc2c(cc(Cl)cc2Nc2nccc(-c3cc(C#N)c4c(c3)[C@@](C)(CO)CN4)n2)C1 (some centres unmarked) [Compound 17] | 3.3 | – | – | – | – | 182 | 5 |
| CN(C)C(=O)C(=O)N1CCc2c(Nc3nccc(-c4cc(C#N)c5c(c4)[C@@](C)(CO)CN5)n3)cc(Cl)cc21 [Compound 19] | 5 | – | ~692 | 6 | – | – | – |

| SMILES | IC50 (NIK/MAP3K14) [nM] | IC50 [1] [nM] | IC50 (KMS12-BM cells; Homo sapiens, KMS-12-BM, 96 h) [nM] | IC50 (JJN-3 cells; Homo sapiens, JJN-3, 96 h) [nM] | IC50 ([1]; Homo sapiens, L-363, 2 h) [nM] | IC50 (KMS12-BM cells) [nM] | IC50 (JJN-3 cells) [nM] |
| --- | --- | --- | --- | --- | --- | --- | --- |
| COCCCc1cc2c(cc1Nc1nccc(-c3cc(C#N)c4c(c3)[C@@](C)(CO)CN4)n1)CCN(C)CC2 [Compound 20] | 20.4 | – | 1480 | 372 | – | – | – |
| C[C@]1(CO)CNc2c(C#N)cc(-c3ccnc(Nc4cc5c(nc4C#CC4CC4)CCOC5)n3)cc21 [Compound 22] | 2240 | – | – | – | > 10000 | – | – |
| CC1OCCn2nc(Nc3nccc(-c4cc(C#N)c5c(c4)C(C)(C)CN5)n3)cc21 (centres unmarked) [Compound 32b] | 5.9 | – | – | – | 8 | – | – |
| CN1CCc2nc(OCC3CC3)c(Nc3nccc(-c4cc(C#N)c5c(c4)[C@@](C)(CO)CN5)n3)cc2C1 [Compound 35] | 4.3 | – | – | – | 69 | – | – |
| CC(=O)N1CCc2c1ccc(Nc1nccc(-c3cc(C#N)c4c(c3)C(C)(CO)CN4)n1)c2F (centres unmarked) [Compound 36] | 3.7 | – | – | – | 16 | – | – |
| CC1(CO)CNc2c(C#N)cc(-c3ccnc(Nc4ccc5c(c4F)CCN5)n3)cc21 (centres unmarked) [Compound 37] | 4.3 | – | – | – | 9 | – | – |
| CN(C)CC(=O)N1CCc2c1ccc(Nc1nccc(-c3cc(C#N)c4c(c3)C(C)(CO)CN4)n1)c2F (centres unmarked) [Compound 38] | 3.4 | – | – | – | 12 | – | – |
| COc1cc2c(cc1Nc1nccc(-c3cc(C#N)c4c(c3)C(C)(CO)CN4)n1)CCN2C(C)=O (centres unmarked) [Compound 39] | 2.5 | – | – | – | 3 | – | – |
| COc1cc2c(cc1Nc1nccc(-c3cc(C#N)c4c(c3)C(C)(CO)CN4)n1)CCN2C(=O)CN(C)C (centres unmarked) [Compound 40] | 4.3 | – | – | – | 3 | – | – |
| Cc1c(Nc2nccc(-c3cc(C#N)c4c(c3)C(C)(CO)CN4)n2)ccc2c1CC(=O)N2 (centres unmarked) [Compound 42] | 8.9 | 36 | – | – | – | – | – |
| CN(C)C(=O)C1Cc2cc(Nc3nccc(-c4cc(C#N)c5c(c4)C(C)(C)CN5)n3)ccc2N1 (centres unmarked) [Compound 43] | 6.6 | – | – | – | 5 | – | – |
| CC1(CO)CNc2c(C#N)cc(-c3ccnc(Nc4cnc5c(c4)COCC5)n3)cc21 (centres unmarked) [Compound 45] | 2.7 | – | ~186 | ~60 | – | – | – |
| C[C@]1(CO)CNc2c(C#N)cc(-c3ccnc(Nc4cc5c(nc4OC4CCCC4)CCOC5)n3)cc21 [Compound 47] | 35.5 | – | – | – | 51 | – | – |
| CC(C)Oc1nc2c(cc1Nc1nccc(-c3cc(C#N)c4c(c3)[C@@](C)(CO)CN4)n1)CN(C1CC1)CC2 [Compound 49] | 34.7 | – | – | – | 115 | – | – |
| CN1CCc2[nH]c(=O)c(Nc3nccc(-c4cc(C#N)c5c(c4)C(C)(CC(F)F)CN5)n3)cc2C1 (centres unmarked) [Compound 57] | 17.4 | – | > 10000 | 11200 | – | – | – |
| COc1cc2c(cc1Nc1nccc(-c3cc(C#N)c4c(c3)C(C)(CO)CN4)n1)NC(=O)CC2 (centres unmarked) [Compound 59] | 12.9 | – | – | – | 37 | – | – |

Source: US11186589B2, “Cyanoindoline derivatives as NIK inhibitors” (Janssen Pharmaceutica NV, priority 2016, dated 2021)
